Measured values from patent US7381707B2, “Treatment of dry eye” (Johnson & Johnson Consumer Companies, Inc., priority 2005, dated 2008).
“Also recorded” adds a separate entry of the source. No end group written: not given here.

Experiments:
Mucin 1 (MUC1) = test: MUC1 gene expression (RT-PCR) in human corneal epithelial equivalents; format: cell-based; conditions: 200 μM; for Fold Change (MUC1:GAPDH): treatment refreshed every day, harvested end of 6th day, band density normalized against GAPDH
Experimental: Human corneal equivalents were purchased from SkinEthic Laboratories (Nice, France). Equivalents were allowed to equilibrate in SkinEthic growth medium overnight at 5% CO2, and were then treated with SLIGRL (SEQ.ID.NO.17) (200 μM), LIGR (SEQ.ID.NO.1) (200 μM) or Phosphate buffered saline (PBS) as a control. Treatment was refreshed everyday. At the end of the 6th day, equivalent samples were harvested. Total RNA was extracted from the equivalents using RNAqueous™ kit (Ambion, Austin, Tex.) according to manufacture's instructions. RNA samples were then treated with DNA-free kit (Ambion, Austin Tex.). 25 nanograms of total RNA from each sample were amplified using OneStep RT-PCR kit (Qiagen, Valencia, Calif.) according to the manufacture's instructions. PCR Primers were synthesized by Integrated DNA Technologies (Coralville, Iowa). Each RT-PCR reaction contained 30 pmol of each primer of MUC1 or 10 pmol of each primer of glyceraldehyde-3-phosphate dehydrogenase (GAPDH). Each PCR cycle consisted of denaturing for 50 seconds at 94° C., annealing for 1 minutes at 58° C., elongation for 1 minute at 72° C. The PCR products were resolved by electrophoresis in 1% agarose gel and stained with ethidium bromide. Kodak Gel logic 100 imaging system was used to take gel pictures and analyze product band density.
All sample densities were normalized against GAPDH.

[1] = system: Human primary neonatal keratinocytes; test: Secretion of inflammatory mediators by primary keratinocytes (ELISA / Beadlyte); format: cell-based; conditions: 50 μM, 24 hours; for Fold change in the secretion of inflammatory mediators: IL-6 / Fold change in the secretion of inflammatory mediators: IL-8 / Fold change in the secretion of inflammatory mediators: PGE2 / Fold change in the secretion of inflammatory mediators: PGF2α: cell media; for Fold change in the secretion of inflammatory mediators: IL-6 / Fold change in the secretion of inflammatory mediators: IL-8: Beadlyte; for Fold change in the secretion of inflammatory mediators: PGE2 / Fold change in the secretion of inflammatory mediators: PGF2α: ELISA
Experimental: Human primary neonatal keratinocytes were purchased from Cascade Biologics (Portland, Oreg.). Cells were cultured in Media 154 supplemented with human keratinocytes growth supplement (Cascade Biologics) and were maintained at <80% confluency. Cells were plated at 6×10^4 per well in 24 well plate and allowed to attach to the well overnight with 5% CO2. Cells were then treated with LIGR (50 μM), SLIGRL (50 μM), the control, scrambled peptide ISLLRG (SEQ.ID.NO.18) (50 μM) or left untreated. Each treatment was done in triplicates. 24 hours later, cell media were collected and examined for the expression and secretion of the inflammatory mediators PGE2, PGF2α, IL-8 and IL-6. PGE2 and PGF2α, using ELISA kits (Cayman Chemicals, Ann Arbor, Mich.) according to manufacturer's instructions. IL-8 and IL-6 levels were detected using Beadlyte Human Multi-cytokine Detection System (Upstate Cell Signaling Solutions, Lake Placid, N.Y.) according to manufacturer's instructions. The experiment was repeated 4 times with different lots of primary keratinocytes.

Cyclooxygenase-2 (COX-2) = test: COX-2 expression (RT-PCR) in skin of topically treated mice; format: in vivo, SKH1 hairless mice; conditions: for COX-2:GAPDH: 100 μM in 70:30 ethanol:propylene glycol, once daily for 2 weeks (M-F), skin RT-PCR
Experimental: SKH1 hairless mice, were purchased from Charles River (Kingston, N.Y.), and were housed in appropriately sized cages in an environmentally controlled room with a 12-hour light—12-hour dark photoperiod and supplied with food and water ad libitum. Mice were either untreated, or treated with LIGR or SLIGRL (From California Research Peptide Research Inc. Napa, Calif.), at 100 μM, in 70:30 ethanol: propylene glycol vehicle, once daily for 2 weeks (M-F, no treatment on weekends). Following ten days of treatment, mice were sacrificed and skin samples were processed for RNA extraction and RT-PCR. The treated skins were analyzed for the expression of Cyclooxygenase-2 (COX-2), a known inflammatory mediator. Total RNA (25 ng) from each sample was subjected to one step RT-PCR reaction using OneStep RT-PCR Kit (QIAGEN®, Valencia, Calif.) according to manufacturer's instructions. The reverse transcription was carried out for 30 minutes at 50° C. and a hot start of 15 minutes at 95° C. was then included to activate HotStarTaq™ DNA polymerase in the reaction mix. PCR Primers were synthesized by Integrated DNA Technologies (Coralville, Iowa). Each RT-PCR reaction contained 30 pmol of each primer of COX-2 or 10 pmol of each primer of GAPDH. Each PCR cycle consisted of denaturing for 50 seconds at 94° C., annealing for 1 minute at 58° C., elongation for 1 minute at 72° C. The PCR products were resolved by electrophoresis in 1% agarose gel and stained with ethidium bromide. Kodak Gel logic 100 imaging system was used to take gel pictures and analyze product band density.
The results of this study are shown in Table 5, as expressed in the ratio of COX-2 expression to the expression of the housekeeping gene GAPDH. […] This in vivo study further supports that LIGR is not a classic PAR-2 activator, and is not inducing pro-inflammatory mediators under physiological conditions.

HaCaT cells = test: Intracellular Ca2+ mobilization (FLIPR) in HaCaT cells; format: cell-based; conditions: for Intracellular calcium mobilization (in words): SLIGRL 4-40 μM, LIGR and scrambled peptide at concentrations as high as 800 μM
Experimental: HaCaT cells were seeded in a black-wall 96-well plate at about 20,000 cells/100 μl/well and grown overnight in culture medium prior to the experiment. On the day of the experiment, cells were loaded with 100 μl of Calcium Plus assay reagent component A (FLEXstation calcium Plus Assay Kit, Molecular Devices, Sunnyvale, Calif.) prepared in Hanks' Balanced Salt Solution (HBSS, Mediatech, Inc., Herndon, Va.) for 30 minutes according to the manufacturer's protocol. After loading the cells, SLIGRL, LIGR and ISSLRG (at 5× concentration in 50 μl) were added to all wells (final volume 250 μl/well), and intracellular Ca^2+ levels were subsequently assayed using the FLIPR system (Molecular Devices, Sunnyvale, Calif.) to simultaneously monitor fluorescence in all wells (Wavelength−excitation=488 nm, Wavelength−emission=510 nm) according to the manufacture's protocol. The fluorescence intensity was captured every 3 seconds for the first 3 minutes after the addition of the peptides. The results of this study are shown in Table 6, in fluorescence units.

PAR-2 = target: T1, PAR-2 (Rattus norvegicus, UniProt Q63645); conditions: rats; Nishikawa H et al, J Pharmacol Exp Ther. 2005; cited from earlier work
T1 construct: host or cells: rats in vivo (endogenous receptor)
T1 sequence (Q63645 26-397): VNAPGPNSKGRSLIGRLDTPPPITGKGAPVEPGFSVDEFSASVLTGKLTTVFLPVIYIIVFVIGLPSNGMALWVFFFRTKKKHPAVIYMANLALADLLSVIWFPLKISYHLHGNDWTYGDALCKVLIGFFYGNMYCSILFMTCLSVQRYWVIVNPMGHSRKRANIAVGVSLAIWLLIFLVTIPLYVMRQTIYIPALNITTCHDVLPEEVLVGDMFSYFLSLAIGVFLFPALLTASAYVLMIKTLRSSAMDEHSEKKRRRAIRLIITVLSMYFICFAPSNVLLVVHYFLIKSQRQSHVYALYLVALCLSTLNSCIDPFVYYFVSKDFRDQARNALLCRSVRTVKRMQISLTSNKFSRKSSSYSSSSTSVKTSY

COX-2:GAPDH (Cyclooxygenase-2 (COX-2))	Substance	Fold Change (MUC1:GAPDH) (Mucin 1 (MUC1))	Induction of expression of the MUC1 gene (in words) (Mucin 1 (MUC1); corneal epithelial equivalents)	Induction of inflammatory mediators (in words) [1]	Fold change in the secretion of inflammatory mediators: IL-6 [1]	Fold change in the secretion of inflammatory mediators: IL-8 [1]	Fold change in the secretion of inflammatory mediators: PGE2 [1]	Fold change in the secretion of inflammatory mediators: PGF2α [1]	Fluorescence intensity (HaCaT cells; 40 μM peptide) [fluorescence units]	Fluorescence intensity (HaCaT cells; 200 μM peptide) [fluorescence units]	Fluorescence intensity (HaCaT cells; 800 μM peptide) [fluorescence units]	Intracellular calcium mobilization (in words) (HaCaT cells)	Fluorescence intensity (HaCaT cells; 400 μM peptide) [fluorescence units]	Increase in the expression and secretion of several inflammatory mediators [1]	COX-2 expression in vivo (in words) (Cyclooxygenase-2 (COX-2); 100 μM topical, mouse skin)	Fluorescence intensity (HaCaT cells; 4 μM peptide) [fluorescence units]	Fluorescence intensity (HaCaT cells; 8 μM peptide) [fluorescence units]	Fluorescence intensity (HaCaT cells; 20 μM peptide) [fluorescence units]	Tear secretion (in words) (PAR-2)
0.275	H2-Leu-Ile-Gly-Arg-NH2 (H-LIGR-NH2)	2.1	induces the expression of the mucin1 gene; also recorded: induced the expression of the MUC1 gene	does not induce the secretion of inflammatory mediators; also recorded: did not induce these inflammatory mediators	1.2	1.0	0.8	0.9	628.27	424.315	556.105	does not induce calcium mobilization; also recorded: do not induce intracellular calcium mobilization							
	ISLLRG (ISSLRG; SYTHETIC PEPTIDE) [the control, scrambled peptide]			did not induce these inflammatory mediators	1.1	1.0	0.8	1.0	535.54			do not induce intracellular calcium mobilization	744.95						
1.168	SLIGRL-NH2	0.7			2.7	3.0	2.3	1.5	2842.92			dose dependent increase		1.5-3 times	increased	1386.9	1904.015	2003.095	induce Tear Secretion
